# Measurements published in paper PMC12267067, “Targeting GRPR for sex hormone-dependent cancer after loss of E-cadherin” (Nature, 2025).
# No end group written: not given here.
# How the values were obtained:
# [1] = tested on: GRPR, Gαq/11 activation; experiment: IP1 detection (HTRF IP-one Gq kit); format: cell-based, mouse; conditions: 10 nM GRP, 30 min, 37 °C
# Description: IP1 levels were quantified using the HTRF IP-one Gq detection kit (62IPAPEB, Revvity) following the manufacturer’s protocol. We treated 4,000 cells for 30 min at 37 °C in StimB buffer with 10 nM GRP, 1 µM RC-3095, 1 µM ICI-182,780 or DMSO. FRET signals (620 nm and 665 nm, excitation at 385 nm) were measured using a Clariostar plate reader (BMG Labtech).
# [2] = tested on: ECAD in 501mel cells with and without GRPR; experiment: Western blot of ECAD with and without GRP; format: cell-based, human; conditions: 501mel cells expressing GRPR, 10 nM GRP
# Description: Whole-cell lysates were prepared and analysed as described previously. The primary antibodies used were: E-cadherin (610182, BD Transduction Laboratories, dilution 1/1,000); ERα (MA1-27107, Invitrogen, dilution 1/500); YAP (14074, Cell Signaling, dilution 1/1,000); β-actin (A5441, Sigma, dilution 1/5,000); and vinculin (4650, Cell Signaling, dilution 1/5,000). All raw data are provided in Supplementary Fig. 1.
# [3] = tested on: human melanoma cell lines (MDA-MB-435S, 501mel); experiment: Cell growth (cell counting), human melanoma cell lines; format: cell-based; conditions: 48 h
# Description: (§1) Six-well tissue-culture plates were seeded with 3 × 10^5 melanoma cells in complete medium. After 24 h, the medium was replaced by low-serum medium (0.5% for murine melanoma cell lines and 1% for human melanoma cells) and the cells were incubated for a further 18 h before stimulation with 10 nM GRP (4011670 bachem) and/or 1 µM RC (R9653, Sigma-Aldrich) for 48 h. The plates were trypsinized just after stimulation or 48 h later and the cells were counted. For the MTT assay, 10,000 cells were seeded per well in 96-well plates. After 24 h, cells were starved overnight and then treated with 10 nM GRP and/or 1 µM RC for 48 h in low-serum medium (0.5% FBS). Next, MTT (M5655, Sigma-Aldrich) was added to the wells to a final concentration of 0.5 mg ml^−1 and the plates were incubated for 3 h. The medium was removed and formazan crystals dissolved in 200 µl DMSO. The absorbance was read at 570 nm using a LUMIstar Omega […] (BMG Labtech). All growth experiments were done using three technical replicates and three biological replicates. For the clonogenic assay, six-well tissue-culture plates were seeded with 500 cells in complete medium. After 10 days (20 days for 1181), colonies were fixed with 4% PFA for 15 min and stained with 10% crystal violet in ethanol for 20 min and counted in images using ImageJ software. Experiments were done in triplicate.
# [4] = tested on: mouse melanoma cell lines (1057, 1064, 1181, 1014); experiment: Cell growth (cell counting), mouse melanoma cell lines; format: cell-based; conditions: 48 h
# Description: as §1
# [5] = tested on: mouse melanoma cell lines (1057, 1064, 1181, 1039, 1456, 1014); experiment: Matrigel invasion assay, mouse melanoma cells; format: cell-based; conditions: 24 h
# Description: Matrigel invasion assays were done in transwell plates with 8.0-µm pores (353097, Falcon) coated with 100 µl of 200 µg ml^−1 Matrigel. Depending on the experiments, cells were seeded directly or 24 h after transfection in low-serum medium (0.5% FCS for murine cells and 1% for human cell lines) with 10 nM GRP, 1 µM RC-3095, and/or 1 µM IC 182,780, or in 10% FCS. Then, 24 hours after stimulation, inserts were washed with PBS and non-invading cells were removed. Cells in the inserts were fixed in methanol at −20 °C overnight. The inserts were rinsed and the membrane carefully removed using a sharp scalpel. The membrane was mounted in prolong glass DAPI (1.5 µg ml^−1). Assays were performed in triplicate and automatic counting of invading cells was done using an Image/Fiji macro (10.5281/zenodo.14509394). Sequences of siRNAs are given in Supplementary Table 11.
# [6] = tested on: Yap1 in Grpr+ mouse melanoma cells (1057); experiment: YAP1 nuclear localization (immunofluorescence); format: cell-based; conditions: 1057 cells, 1 h, 10 nM GRP and/or 1 µM RC
# Description: Cells were seeded on coverslips and cultivated until 100% confluence was achieved. After 24 h of starvation in 0.5% FCS for murine melanoma cell lines and 1% FCS for human melanoma, the medium was complemented with 10 nM GRP and/or 1 µM RC for 1 h. Cells were fixed with 4% PFA for 15 min and blocked with 5% normal goat serum and 0.3% Triton X-100 in PBS. Cells were incubated overnight at 4 °C with anti-YAP D8H1X antibody (14074, cell Signaling, 1/100 dilution) in 1% BSA and 0.3% Triton X-100 followed by incubation for 1.5 h at room temperature with goat anti-rabbit Alexa fluor 594 (A-11012, Invitrogen, 1/500 dilution). Coverslips were mounted with Prolong Gold containing 1.5 µg ml^−1 DAPI (P36934, Invitrogen). Images were acquired using an inverted SP8 Leica confocal microscope (Leica Microsystem). YAP1 localization was evaluated using ImageJ Software.
# [7] = tested on: serine/threonine kinases in 1057 cells; experiment: Kinase assay (PamGene STK PamChip); format: cell-based, mouse; conditions: 10 nM GRP, 15 min
# Description: Serine/threonine and tyrosine kinase activity were determined using STK PamChips (87102 PamGene International). All assays were done according to the manufacturer’s protocol. In brief, cells were seeded to 70% confluence and starved overnight the day after. Then, the medium was replaced by medium containing vehicle (0.1% DMSO) or 10 nM GRP and/or 1 µM RC and the cells incubated for 15 min. Cells were rinsed twice in PBS and then lysed in M-Per buffer (78503, ThermoFisher Scientific) containing Halt Phosphatase Inhibitor (78428, ThermoFisher Scientific) and Halt Protease Inhibitor (78437, ThermoFisher Scientific), both diluted 1:100. The lysates were immediately snap-frozen. Kinase activity was determined using Pamstation PS12 and 1 µg protein for the STK chips, according to the manufacturer’s protocol. The data were analysed using BioNavigator software (PamGene International), batch corrected using ComBat[71] and normalized using VSN[72]. Kinase activity was assessed using the 2018 version of the UKA tool using basic parameters (Scan rank from 4 to 12, 500 permutations, 90% homology, equivalent weight for each database, minimal prediction score of 300). The UKA tool infers the active kinase from the differentially phosphorylated peptides using databases and predicted interactions (PhosphoNet database).
substance,measurement,setting,value
"GRP: GRPR's natural agonist, endogenous ligand of GRPR (4011670 bachem) (VPLPAGGGTVLTKMYPRGNHWAVGHLM; not fully specified; ends and bridges not checked; UniProt P07492 24-50, looked up)","IP1 production, GRPR-negative cells",[1],not GRPR-negative cells
same,"IP1 production, GRPR-positive cells","[1]; 4,000 cells, StimB buffer, 1 µM RC-3095, 1 µM ICI-182,780 (pre-treatment)",triggered IP1 production
same,ECAD protein level,[2],lower
same,"cell growth, GRPR-negative human cells","[3]; 501mel, 10 nM GRP, low serum",had no effect
same,"cell growth, GRPR-positive human line","[3]; MDA-MB-435S, 10 nM GRP and/or 1 µM RC, low serum 1%",promoted growth
same,"cell growth, GRPR-positive mouse lines","[4]; 1057 and 1064, 10 nM GRP and/or 1 µM RC, low serum 0.5%",promoted growth
same,"cell growth, GRPR-negative mouse cells","[4]; 1181 and 1014, 10 nM GRP, low serum",had no effect
same,"invasion (number of invading cells), GRPR-positive mouse lines","[5]; 1057 (also 1064, GRPR-transduced 1014 and 1181 for RC-3095), 10 nM GRP, 1 µM RC-3095 and/or 1 µM ICI, Matrigel 200 µg ml−1, 0.5% FCS",promoted invasion
same,"invasion (number of invading cells), Grpr-negative mouse lines","[5]; 1181 male Ecad, 1039 female Ecad, 1456 male ΔEcad, 10 nM GRP and/or 1 µM ICI",but not in Ecad-positive (1181 male and 1039 female) or Ecad-negative male (1456) cells
same,YAP1 nuclear localization,[6],increased
same,kinases activated following GRPR activation,[7],"primarily triggered protein kinase C (PKC) and, to a lesser extent, PKAα and PRKX"
